Reference: patent US20250352458A1, “IMPROVEMENTS IN OR RELATING TO EXTRACTS” (Givaudan SA, priority 2020, published 2025)
Where “and” joins values, the source holds several entries; their conditions need not be identical. Equal entries are not always repeated.

Experiments:
[1] = tested on: Propionibacterium acnes (C. acnes) phylotype IA1 ATCC 6919; experiment: MIC evaluation, optical density and percentage of inhibition; type: cell-based
Text: The minimum inhibitory concentration of the following active ingredients has been assessed: • Mangifera indica extract (in propanediol/water 75/25); • Vehicule (propanediol/water 75/25, expressed as Activolo3-75%); • “Pool Mangiferin” which is the pure molecule mangiferin at the same concentration in the Mangifera indica extract in propanediol/water 75/25. • “Pool Mangifera” with is the mix of the 4 molecules (mangiferin, maclurin-C-glucoside, irifluophenone-C-glucoside, gallotanin) at the same concentration in the Mangifera indica extract in propane-diol/water 75/25. […] After two days, the bacterial concentration was adjusted in reinforced clostridial broth to obtain a solution at 1.106 CFU/ml (5.104 CFU/well). […] Concentrations are expressed in % (m/v). […] The diluted bacterial suspension was added to columns 2 to 12. RCB medium was added to column 1 as negative control. Optical density was determined, which correlates to the bacterial growth.

[2] = tested on: H. influenzae (ATCC 49766); experiment: as above; type: cell-based, Haemophilus influenza
Text: The minimum inhibitory concentration of the following active ingredients has been assessed: • Mangifera indica extract (in propanediol/water 75/25); • Vehicule (propanediol/water 75/25, expressed as Activolo3-75%); • “Pool Mangiferin” which is the pure molecule mangiferin at the same concentration in the Mangifera indica extract in propanediol/water 75/25. • “Pool Mangifera” with is the mix of the 4 molecules (mangiferin, maclurin-C-glucoside, irifluophenone-C-glucoside, gallotanin) at the same concentration in the Mangifera indica extract in propane-diol/water 75/25.
H. influenzae (ATCC 49766) was cultured in Mueller Hinton broth as recommended by ATCC with 5% CO2. The Bacterial concentration was adjusted in Mueller Hinton broth to obtain a solution at 1.106 CFU/ml (5.104 CFU/well) (launch of culture at D-2). […] Two day later, the inhibition of H. influenzae was evaluated using Colony counter IUL instruments, flash and go model (reading at D2).
Concentrations are expressed in % (m/v).
The diluted bacterial suspension was added to columns 2 to 12. RCB medium was added to column 1 as negative control.
Optical density was determined, which correlates to the bacterial growth. Thereafter, an inhibition value (%) was determined for each condition using the following formula: […]
The percentage of inhibition must be higher or equal than 90% to reach the MIC.

[3] = 0.39 10^−2 % (m/v), plate col. 12
[4] = 0.78 10^−2 % (m/v), plate col. 11
[5] = 1.56 10^−2 % (m/v), plate col. 10
[6] = 3.1310^−2 % (m/v), plate col. 9
[7] = 6.25 10^−2 % (m/v), plate col. 8
[8] = 12.5 10^−2 % (m/v), plate col. 7
[9] = 25.0 10^−2 % (m/v), plate col. 6

**Q.** For O=c1c2cc(O)c(O)cc2oc2cc(O)c([C@@H]3O[C@H](CO)[C@@H](O)[C@H](O)[C@H]3O)c(O)c12 [pool mangiferin], which “Optical density, C. acnes” value [1, 3] is on record?
**A.** 0.238 and 0.246

**Q.** And the “Percentage of inhibition, C. acnes” value [1, 3]?
**A.** 2.0% and 0%

**Q.** What about the “Optical density, C. acnes” value ([1]; 0.5% (m/v), plate col. 5) of the same compound?
**A.** 0.242 and 0.245

**Q.** And the “Percentage of inhibition, C. acnes” value ([1]; 0.5% (m/v), plate col. 5)?
**A.** 0%

**Q.** And the “Optical density, C. acnes” value [1, 4]?
**A.** 0.244 and 0.245

**Q.** And the “Percentage of inhibition, C. acnes” value [1, 4]?
**A.** 0%

**Q.** And the “Optical density, C. acnes” value ([1]; 1% (m/v), plate col. 4)?
**A.** 0.241

**Q.** What about the “Percentage of inhibition, C. acnes” value ([1]; 1% (m/v), plate col. 4) of the same compound?
**A.** 0%

**Q.** What about the “Optical density, C. acnes” value [1, 5] of the same compound?
**A.** 0.243 and 0.242

**Q.** What about the “Percentage of inhibition, C. acnes” value [1, 5] of the same compound?
**A.** 0%

**Q.** And the “antibacterial effect against P. acnes (in words)” value ([1]; 2%)?
**A.** no antibacterial effect

**Q.** And the “Optical density, C. acnes” value ([1]; 2% (m/v), plate col. 3)?
**A.** 0.236 and 0.234

**Q.** And the “Percentage of inhibition, C. acnes” value ([1]; 2% (m/v), plate col. 3)?
**A.** 3.0% and 4.1%

**Q.** What about the “Optical density, C. acnes” value [1, 6] of the same compound?
**A.** 0.244

**Q.** What about the “Percentage of inhibition, C. acnes” value [1, 6] of the same compound?
**A.** 0%

**Q.** And the “Optical density, C. acnes” value [1, 7]?
**A.** 0.242 and 0.245

**Q.** What about the “Percentage of inhibition, C. acnes” value [1, 7] of the same compound?
**A.** 0%

**Q.** What about the “Optical density, C. acnes” value [1, 8] of the same compound?
**A.** 0.245 and 0.244

**Q.** What about the “Percentage of inhibition, C. acnes” value [1, 8] of the same compound?
**A.** 0%

**Q.** And the “Optical density, C. acnes” value [1, 9]?
**A.** 0.245 and 0.243

**Q.** And the “Percentage of inhibition, C. acnes” value [1, 9]?
**A.** 0%

**Q.** What about the “Optical density, H. influenza” value [2, 3] of the same compound?
**A.** 0.190 and 0.197

**Q.** What about the “Percentage of inhibition, H. influenza” value [2, 3] of the same compound?
**A.** 1.9% and 0%

**Q.** What about the “Optical density, H. influenza” value ([2]; 0.5% (m/v), plate col. 5) of the same compound?
**A.** 0.193 and 0.191

**Q.** What about the “Percentage of inhibition, H. influenza” value ([2]; 0.5% (m/v), plate col. 5) of the same compound?
**A.** −0.3% and 1.2%

**Q.** And the “Optical density, H. influenza” value [2, 4]?
**A.** 0.188 and 0.197

**Q.** What about the “Percentage of inhibition, H. influenza” value [2, 4] of the same compound?
**A.** 3.4% and 0%

**Q.** And the “Optical density, H. influenza” value ([2]; 1% (m/v), plate col. 4)?
**A.** 0.190 and 0.183

**Q.** And the “Percentage of inhibition, H. influenza” value ([2]; 1% (m/v), plate col. 4)?
**A.** 1.9% and 7.0%

**Q.** And the “Optical density, H. influenza” value [2, 5]?
**A.** 0.185 and 0.196

**Q.** And the “Percentage of inhibition, H. influenza” value [2, 5]?
**A.** 5.5% and 0%

**Q.** What about the “antibacterial effect against H. influenza (in words)” value ([2]; 2%) of the same compound?
**A.** no antibacterial effect

**Q.** What about the “Optical density, H. influenza” value ([2]; 2% (m/v), plate col. 3) of the same compound?
**A.** 0.184 and 0.181

**Q.** What about the “Percentage of inhibition, H. influenza” value ([2]; 2% (m/v), plate col. 3) of the same compound?
**A.** 6.3% and 8.4%

**Q.** What about the “Optical density, H. influenza” value [2, 6] of the same compound?
**A.** 0.180 and 0.193

**Q.** What about the “Percentage of inhibition, H. influenza” value [2, 6] of the same compound?
**A.** 9.1% and 0%

**Q.** What about the “Optical density, H. influenza” value [2, 7] of the same compound?
**A.** 0.185 and 0.197

**Q.** And the “Percentage of inhibition, H. influenza” value [2, 7]?
**A.** 5.5% and 0%

**Q.** And the “Optical density, H. influenza” value [2, 8]?
**A.** 0.187 and 0.195

**Q.** And the “Percentage of inhibition, H. influenza” value [2, 8]?
**A.** 4.1% and 0%

**Q.** What about the “Optical density, H. influenza” value [2, 9] of the same compound?
**A.** 0.189 and 0.196

**Q.** What about the “Percentage of inhibition, H. influenza” value [2, 9] of the same compound?
**A.** 2.6% and 0%
